# Assay results from US11104700B2, “Oligonucleotides” (OXFORD UNIVERSITY INNOVATION LIMITED, priority 2017, dated 2021).
# Where two headings read alike, the source gives them in different places. In the oligonucleotide strings, read from the 5' end, every base follows the letter of its sugar. An asterisk marks phosphorothioate; unmarked linkages are phosphodiester. Other units and linkages are bracketed, terminal groups are in braces. A string of capitals states the bases alone. [tz] = triazole internucleoside linkage replacing phosphodiester; l = locked nucleic acid (LNA); [5mC] = 5-methylcytosine; d = 2'-deoxy (DNA)
# What was measured:
# [1] = test system: RNA target: 5′-rGCU GCA AGC GUC G (SEQ ID NO: 34); test: UV thermal melting, single triazole linkage (MeC-T step), RNA target; assay type: binding
# [2] = test system: DNA target: 5′-dGCT GCA AGC GTC G (SEQ ID NO: 33); test: UV thermal melting, single triazole linkage (MeC-T step), DNA target; assay type: binding
# [3] = test system: RNA Target 3′-rGCUGCGMACGUCG (M = G, C, U); test: Mismatch discrimination against RNA targets containing a mismatch nucleotide (UV melting); assay type: binding
# [4] = test system: DNA target: 5′-dGCT GGA GAG GTC G (SEQ ID NO: 39); assay type: binding; settings: for Tm, DNA target: pH 7
# [5] = test system: RNA target; 5′-rGCU AGA GAA GUC G (SEQ ID NO: 38); test: UV thermal melting, two triazole linkages (MeC-T steps), RNA target; assay type: binding; settings: for Tm, RNA target / ΔTm/mod, RNA target: Table 6; for Tm, RNA target: 10 mM phosphate, 200 mM NaCl, pH 7.0, 3.0 μM each strand; for ΔTm/mod, RNA target: relative to unmodified ON7
# [6] = test system: DNA target; 5′-dGCT AGA GAA GTC G (SEQ ID NO: 37); test: UV thermal melting, two triazole linkages (MeC-T steps), DNA target; assay type: binding; settings: Table 6; for Tm, DNA target: 10 mM phosphate, 200 mM NaCl, pH 7.0, 3.0 μM each strand; for ΔTm/mod, DNA target: relative to unmodified ON7
# [7] = test system: Phosphodiesterase 1 from Crotalus adamanteus venom
# [8] = test system: RNA target 5′-rGCU GCA GGC GUC G (SEQ ID NO: 24); assay type: binding; settings: for Tm, RNA target: pH 7
# [9] = test system: DNA target 5′-dGCT GCA GGC GTC G (SEQ ID NO: 23); assay type: binding; settings: for Tm, DNA target: pH 7
# [10] = Table 3, fully matched duplex (M = A)
# [11] = Table 5, 10 mM phosphate, 200 mM NaCl, pH 7.0, 3.0 μM each strand
# [12] = change in Tm relative to the fully matched duplex (M = A)
substance,measurement,setting,value
5′-dCGACG^MeCtTTGCAGC (DNA dCdGdAdCdGd[5mC][tz]dTdTdGdCdAdGdC; further chemistry not given here) [ON3],"Tm, RNA target M = A",[1]; [10],56.6 °C
same,"Tm, RNA target",[1]; [11],56.6 °C
same,"ΔTm, RNA target (change in Tm relative to the unmodified duplex)","[1]; Table 5, relative to ON1",-6.2 °C
same,"Tm, DNA target",[2]; [11],55.3 °C
same,"ΔTm, DNA target (change in Tm relative to the unmodified duplex)","[2]; Table 5, relative to ON1",-8.9 °C
same,"ΔTm, mismatch M = C",[3]; [12],-16.1 °C
same,"ΔTm, mismatch M = G",[3]; [12],-2.2 °C
same,"ΔTm, mismatch M = U",[3]; [12],-12.9 °C
5′-dCGA^MeCt^MeCTCT^MeCt^MeCAGC [ON14],"ΔTm/mod, DNA target",[4],-7.3
same,"Tm, DNA target",[4],51.9 °C
5′-dCGA^MeCtTTCT^MeCtTAGC (DNA dCdGdAd[5mC][tz]dTdTdCdTd[5mC][tz]dTdAdGdC; further chemistry not given here) [ON9],"Tm, RNA target",[5],47.1 °C
same,"ΔTm/mod, RNA target",[5],-5.8 °C/modification
same,"Tm, DNA target",[6],42.3 °C
same,"ΔTm/mod, DNA target",[6],-7.4 °C/modification
5′-dCGACG^MeC^LtT^LTGCAGC [ON6],additional stabilising effect of LNA on the 5′-side of the triazole,[1],no significant additional stabilising effect
same,"ΔTm, RNA target (change in Tm relative to the unmodified duplex)",[1],+0.1
same,"Tm, RNA target",[1]; pH 7,62.9 °C
same,"ΔTm, DNA target (change in Tm relative to the unmodified duplex)",[2],-5.8
same,"Tm, DNA target",[2]; pH 7,58.4 °C
CGACG^MeCT^LTGCAGC [ON4],"Tm, RNA target M = A",[1],68.9 °C
same,"ΔTm, RNA target (change in Tm relative to the unmodified duplex)",[1],6.1
same,"Tm, RNA target",[1]; pH 7,68.9 °C
same,"ΔTm, DNA target (change in Tm relative to the unmodified duplex)",[2],3.3
same,"Tm, DNA target",[2]; pH 7,67.5 °C
same,"ΔTm, mismatch M = C",[3],-15.2
same,"ΔTm, mismatch M = G",[3],-4.8
same,"ΔTm, mismatch M = U",[3],-13.7
"CGACG^MeCTTGCAGC (DNA CGACGCTTGCAGC; DNA, [5mC] at 6, backbone not given here) [ON1]","Tm, RNA target M = A",[1]; [10],62.8 °C
same,"Tm, RNA target",[1]; [11],62.8 °C
same,"Tm, DNA target",[2]; [11],64.2 °C
same,time to full digestion by 3′-exonuclease (gel),[7],≤ 5 min
same,"ΔTm, mismatch M = C",[3]; [12],-16.3 °C
same,"ΔTm, mismatch M = G",[3]; [12],-3.9 °C
same,"ΔTm, mismatch M = U",[3]; [12],-13.7 °C
5′-dCGACG^MeCtT^LTGCAGC [ON2],"Tm, RNA target M = A",[1],62 °C
same,increase in Tm relative to the duplex with only the triazole linkage,[1],5.4
same,"ΔTm, RNA target (change in Tm relative to the unmodified duplex)",[1],−0.8
same,"Tm, RNA target",[1]; pH 7,62 °C
same,increase in thermal stability compared to the duplex containing only the triazole linkage,[2],2.9
same,"ΔTm, DNA target (change in Tm relative to the unmodified duplex)",[2],−6.0
same,"Tm, DNA target",[2]; pH 7,58.2 °C
same,"ΔTm, mismatch M = C",[3],-15.6
same,"ΔTm, mismatch M = G",[3],-3.3
same,"ΔTm, mismatch M = U",[3],-13.4
5′-d CGACG^MeCp^MeC^LTGCAGC [ON34],"ΔTm, RNA target (relative to the unmodified duplex ON33)",[8],+5.6
same,"Tm, RNA target",[8],74.7 °C
same,"ΔTm, DNA target (relative to the unmodified duplex ON33)",[9],+3.3
same,"Tm, DNA target",[9],72 °C
5′-dCGA^MeCt^MeC^LTCT^MeCt^MeC^LAGC [ON13],"ΔTm/mod, DNA target",[4],-5.1
same,"Tm, DNA target",[4],56.4 °C
5′-dCGACG^MeCt^MeC^LTGCAGC [ON11],"ΔTm, RNA target (relative to the unmodified duplex ON33)",[8],-0.5
same,"Tm, RNA target",[8],68.6 °C
same,"ΔTm, DNA target (relative to the unmodified duplex ON33)",[9],-5.1
same,"Tm, DNA target",[9],63.5 °C
CGA^MeCTTCT^MeCTAGC (DNA dCdGdAd[5mC]dTdTdCdTd[5mC]dTdAdGdC) [ON7],"Tm, RNA target",[5],58.8 °C
same,"Tm, DNA target",[6],57.1 °C
5′-dCGACG^MeC^LtTTGCAGC (DNA dCdGdAdCdGl[5mC][tz]dTdTdGdCdAdGdC; further chemistry not given here) [ON5],additional stabilising effect of LNA on the 5′-side of the triazole,[1]; DNA:RNA hybrids or DNA duplexes,no significant additional stabilising effect
same,"Tm, RNA target",[1]; [11],55.5 °C
same,"ΔTm, RNA target (change in Tm relative to the unmodified duplex)","[1]; Table 5, relative to ON1",-7.2 °C
same,"Tm, DNA target",[2]; [11],52.7 °C
same,"ΔTm, DNA target (change in Tm relative to the unmodified duplex)","[2]; Table 5, relative to ON1",-11.5 °C
CGA^MeCT^LTCT^MeCT^LAGC (DNA dCdGdAd[5mC]lTdTdCdTd[5mC]lTdAdGdC) [ON10],"Tm, RNA target",[5],70.0 °C
same,"ΔTm/mod, RNA target",[5],+5.6 °C/modification
same,"Tm, DNA target",[6],62.2 °C
same,"ΔTm/mod, DNA target",[6],+2.5 °C/modification
5′-dCGA^MeCp^MeCTCT^MeCp^MeCAGC [ON35],"Tm, DNA target",[4],66.6 °C
5′-d CGACG^MeCp^MeCTGCAGC [ON33],"Tm, RNA target",[8],69.1 °C
same,"Tm, DNA target",[9],68.7 °C
5′-dCGA^MeCp^MeC^LTCT^MeCp^MeC^LAGC [ON36],"ΔTm/mod, DNA target",[4],+2.8
same,"Tm, DNA target",[4],72.2 °C
5′-dCGACG^MeCt^MeCTGCAGC [ON12],"ΔTm, RNA target (relative to the unmodified duplex ON33)",[8],-5.8
same,"Tm, RNA target",[8],63.4 °C
same,"ΔTm, DNA target (relative to the unmodified duplex ON33)",[9],-6.4
same,"Tm, DNA target",[9],62 °C
5′-dCGA^MeCtT^LTCT^MeCtT^LAGC (DNA dCdGdAd[5mC][tz]lTdTdCdTd[5mC][tz]lTdAdGdC; further chemistry not given here) [ON8],increase in Tm per modification relative to two triazole linkages without 3′-LNA,"[5]; ON8 compared with ON9, RNA target",5.0 °C/modification
same,drop in Tm per modification compared to unmodified ON7,[5]; RNA target,0.8 °C/modification
same,"Tm, RNA target",[5],57.1 °C
same,"ΔTm/mod, RNA target",[5],-0.8 °C/modification
same,"Tm, DNA target",[6],48.0 °C
same,"ΔTm/mod, DNA target",[6],-4.5 °C/modification
